Measurements as given in PubChem BioAssay AID1918944 (Molecular Pharmacology Branch, DTP, NCI, 2023).

System: 786-0 complex spheroid viability
Test: Anticancer human tumor 786-0 cell line growth inhibition;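 note: spheroids exposed to agents for seven days before readout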
Conditions: for viability, T/C: stronger effect = lower value
How it was run: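 Drug combinations with the LSD1 inhibitor iadademstat tested on tumor cells co-cultured as spheroids with endothelial cells and mesenchymal stem cells. Concentrations descended in half-log increments from clinical Cmax or 10 microM.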

[1] = curve of first compound, second compound 0.1 µM
[2] = curve of first compound, second compound 0.316 µM
[3] = curve of first compound, second compound 1 µM
[4] = curve of first compound, second compound 3.16 µM
[5] = curve of first compound, second compound 10 µM

## CCc1c2c(nc3ccc(O)cc13)-c1cc3c(c(=O)n1C2)COC(=O)[C@]3(O)CC + NC1CCC(NC2CC2c2ccccc2)CC1
[1]
  IC50: < 0.949 nM
[2]
  IC50: < 0.949 nM
[3]
  IC50: < 0.949 nM
[4]
  IC50: < 0.949 nM
[5]
  IC50: < 0.949 nM
Second compound 0.1 µM, first compound 0.000949 µM
  viability, T/C: 5.59%
Second compound 0.1 µM, first compound 0.003 µM
  viability, T/C: 3.78%
Second compound 0.1 µM, first compound 0.00949 µM
  viability, T/C: 4.66%
Second compound 0.1 µM, first compound 0.03 µM
  viability, T/C: 5.87%
Second compound 0.1 µM, first compound 0.0949 µM
  viability, T/C: 7.32%
Second compound 0.1 µM, first compound 0.3 µM
  viability, T/C: 5.08%
Second compound 0.316 µM, first compound 0.000949 µM
  viability, T/C: 4.71%
Second compound 0.316 µM, first compound 0.003 µM
  viability, T/C: 5.02%
Second compound 0.316 µM, first compound 0.00949 µM
  viability, T/C: 5.44%
Second compound 0.316 µM, first compound 0.03 µM
  viability, T/C: 5.35%
Second compound 0.316 µM, first compound 0.0949 µM
  viability, T/C: 6.11%
Second compound 0.316 µM, first compound 0.3 µM
  viability, T/C: 6.29%
Second compound 1 µM, first compound 0.000949 µM
  viability, T/C: 4.87%
Second compound 1 µM, first compound 0.003 µM
  viability, T/C: 4.67%
Second compound 1 µM, first compound 0.00949 µM
  viability, T/C: 4.31%
Second compound 1 µM, first compound 0.03 µM
  viability, T/C: 6.32%
Second compound 1 µM, first compound 0.0949 µM
  viability, T/C: 7.36%
Second compound 1 µM, first compound 0.3 µM
  viability, T/C: 5.93%
Second compound 3.16 µM, first compound 0.000949 µM
  viability, T/C: 4.72%
Second compound 3.16 µM, first compound 0.003 µM
  viability, T/C: 4.8%
Second compound 3.16 µM, first compound 0.00949 µM
  viability, T/C: 5.76%
Second compound 3.16 µM, first compound 0.03 µM
  viability, T/C: 6.79%
Second compound 3.16 µM, first compound 0.0949 µM
  viability, T/C: 7.9%
Second compound 3.16 µM, first compound 0.3 µM
  viability, T/C: 6.54%
Second compound 10 µM, first compound 0.000949 µM
  viability, T/C: 3.83%
Second compound 10 µM, first compound 0.003 µM
  viability, T/C: 4.29%
Second compound 10 µM, first compound 0.00949 µM
  viability, T/C: 6.51%
Second compound 10 µM, first compound 0.03 µM
  viability, T/C: 9.43%
Second compound 10 µM, first compound 0.0949 µM
  viability, T/C: 10.1%
Second compound 10 µM, first compound 0.3 µM
  viability, T/C: 7.07%

## NC1CC1c1ccc(-c2cccc(O)c2)cc1 (stereo not drawn)
Compound 0.316 µM
  viability, T/C: 110% [middle of 25 runs]
Compound 10 µM
  viability, T/C: 89.2% [middle of 25 runs]
Compound alone, run of 12/07/2021
  IC50: > 10000 nM

## CC(C)CC(NC(=O)CNC(=O)c1cc(Cl)ccc1Cl)B1OC(=O)CC(CC(=O)O)(C(=O)O)O1 (stereo not drawn) + NC1CC1c1ccc(-c2cccc(O)c2)cc1
[1]
  IC50: 14.1 nM
[2]
  IC50: 14.8 nM
[3]
  IC50: 14.7 nM
[4]
  IC50: 13.3 nM
[5]
  IC50: 9.46 nM
Second compound 0.1 µM, first compound 0.000316 µM
  viability, T/C: 95.1%
Second compound 0.1 µM, first compound 0.001 µM
  viability, T/C: 106%
Second compound 0.1 µM, first compound 0.00316 µM
  viability, T/C: 93.2%
Second compound 0.1 µM, first compound 0.01 µM
  viability, T/C: 55.9%
Second compound 0.1 µM, first compound 0.0316 µM
  viability, T/C: 33.5%
Second compound 0.1 µM, first compound 0.1 µM
  viability, T/C: 16.6%
Second compound 0.316 µM, first compound 0.000316 µM
  viability, T/C: 111%
Second compound 0.316 µM, first compound 0.001 µM
  viability, T/C: 106%
Second compound 0.316 µM, first compound 0.00316 µM
  viability, T/C: 97.7%
Second compound 0.316 µM, first compound 0.01 µM
  viability, T/C: 59.3%
Second compound 0.316 µM, first compound 0.0316 µM
  viability, T/C: 30.5%
Second compound 0.316 µM, first compound 0.1 µM
  viability, T/C: 17.1%
Second compound 1 µM, first compound 0.000316 µM
  viability, T/C: 101%
Second compound 1 µM, first compound 0.001 µM
  viability, T/C: 102%
Second compound 1 µM, first compound 0.00316 µM
  viability, T/C: 90.5%
Second compound 1 µM, first compound 0.01 µM
  viability, T/C: 57.6%
Second compound 1 µM, first compound 0.0316 µM
  viability, T/C: 33.2%
Second compound 1 µM, first compound 0.1 µM
  viability, T/C: 17.4%
Second compound 3.16 µM, first compound 0.000316 µM
  viability, T/C: 88.6%
Second compound 3.16 µM, first compound 0.001 µM
  viability, T/C: 100%
Second compound 3.16 µM, first compound 0.00316 µM
  viability, T/C: 88.1%
Second compound 3.16 µM, first compound 0.01 µM
  viability, T/C: 54.6%
Second compound 3.16 µM, first compound 0.0316 µM
  viability, T/C: 31.4%
Second compound 3.16 µM, first compound 0.1 µM
  viability, T/C: 15.6%
Second compound 10 µM, first compound 0.000316 µM
  viability, T/C: 88%
Second compound 10 µM, first compound 0.001 µM
  viability, T/C: 89.5%
Second compound 10 µM, first compound 0.00316 µM
  viability, T/C: 84%
Second compound 10 µM, first compound 0.01 µM
  viability, T/C: 45.4%
Second compound 10 µM, first compound 0.0316 µM
  viability, T/C: 27.4%
Second compound 10 µM, first compound 0.1 µM
  viability, T/C: 12.4%
